The values below are quoted from earlier work in US4913906A, “Novel controlled release dosage form of valproic acid” (priority 1985, dated 1990).

The conditions of data set [1]: all currently used antiepileptics.

Take `CCCC(CCC)C(=O)O` [VPA, valproic acid]: the “elimination half-life compared with other antiepileptics” value in data set [1] is listed as “shortest elimination half-life of all currently used antiepileptics”.

Turning to `CCCC(CCC)C(N)=O` [Valpromide, valpromide], the “fluctuations in the drug plasma level” value (chronic valpromide treatment) was “fewer fluctuations in the drug plasma level”. Besides, for the setting “compared with valproic acid”, the absorption rate entry is given as “slower absorption rate than valproic acid”. Further, the “biotransformation to VPA” value (in vivo) is recorded as “biotransform to VPA before reaching the systemic circulation”.
